Measurements: US12421253B2 (Mirati Therapeutics, Inc., priority 2020, dated 2025)

Assays:
[1] = target: T1, KRas^G12D (Homo sapiens, UniProt P01116, G12D); assay: KRas binding assay (TR-FRET displacement of Cy5 labelled tracer)
T1 construct: […]; biotin (biotinylated); purchased Accelegan Inc

[2] = target: T2, KRas^G12R (Homo sapiens, UniProt P01116, G12R); assay: as above
T2 construct: […]; biotin (biotinylated); purchased Accelegan Inc

[3] = target: T3, KRas^G12V (Homo sapiens, UniProt P01116, G12V); assay: as above
T3 construct: […]; biotin (biotinylated); purchased Accelegan Inc

[4] = tested on: A549 cells, pERK; assay: Inhibition of KRas phosphorylation of ERK (Cisbio HTRF Advanced pERK assay); assay type: cell-based; settings: Homo sapiens, 3 hrs, read-out: Inhibition (HTRF IC50 nM) of KRas-mediated Phosphorylation of ERK, A549
In short: (§1)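 Cells seeded at 6,000/well in RPMI with 10% FBS, grown overnight at 37 °C, then exposed 3 h to 10-dose 3-fold compound series from 10 uM (0.8% DMSO final); 0.2 uM trametinib as minimum control. Lysates read for pERK by HTRF after 2 h antibody incubation at room temperature.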

[5] = tested on: ASPC1 cells, pERK; assay: as above; assay type: cell-based; settings: Homo sapiens, ASPC1, 3 h, AsPC-1 cells, read-out: Inhibition (HTRF IC50 nM) of KRas-mediated Phosphorylation of ERK, AsPC-1
In short: as §1

[6] = tested on: H460 cells, pERK; assay: as above; assay type: cell-based; settings: Homo sapiens, NCI-H460, 3 hrs, read-out: Inhibition (HTRF IC50 nM) of KRas-mediated Phosphorylation of ERK, H460
In short: as §1

[7] = tested on: H727 cells, pERK; assay: as above; assay type: cell-based; settings: Homo sapiens, NCI-H727, 3 h, read-out: Inhibition (HTRF IC50 nM) of KRas-mediated Phosphorylation of ERK, H727
In short: as §1

[8] = tested on: HCT116 cells, pERK; assay: as above; assay type: cell-based; settings: Homo sapiens, HCT-116, 3 hrs, read-out: Inhibition (HTRF IC50 nM) of KRas-mediated Phosphorylation of ERK, HCT116
In short: as §1

[9] = tested on: MKN1 cells, pERK; assay: as above; assay type: cell-based; settings: Homo sapiens, MKN-1, 3 h, read-out: Inhibition (HTRF IC50 nM) of KRas-mediated Phosphorylation of ERK, MKN1
In short: as §1

[10] = tested on: PSN1 cells, pERK; assay: as above; assay type: cell-based; settings: Homo sapiens, PSN1, 3 h, read-out: Inhibition (HTRF IC50 nM) of KRas-mediated Phosphorylation of ERK, PSN1
In short: as §1

[11] = target: T4, KRas^WT (Homo sapiens, UniProt P01116); assay: KRas binding assay (TR-FRET displacement of Cy5 labelled tracer)
T4 construct: […]; biotin (biotinylated); purchased Accelegan Inc

[12] = target: T5, KRas^G12A (Homo sapiens, UniProt P01116, G12A); assay: as above
T5 construct: […]; biotin (biotinylated); purchased Accelegan Inc

[13] = target: T6, KRas^G12S (Homo sapiens, UniProt P01116, G12S); assay: as above
T6 construct: […]; biotin (biotinylated); purchased Accelegan Inc

[14] = tested on: AsPC-1 (G12D) cells, phospho-ERK; assay: Inhibition of KRas-mediated phosphorylation of ERK (phospho-ERK/GAPDH antibody detection, LI-COR); assay type: cell-based; settings: Homo sapiens, ASPC1, 3 hours
Protocol: (§2) AsPC-1 (G12D, ATCC CRL-1682), A549 (G12S, ATCC CCL-185), HCT116 (G13D, ATCC CCL-247) cells were grown in DMEM medium supplemented with 10% fetal bovine serum and Penicillin/Streptomycin. NCI-H358 (G12C, ATCC CRL-5807), NCI-H460 (Q61H, ATCC HTB-117), NCI-H727 (G12V, ATCC CRL-5815), MKN1 (WTdep, JCRB JCRB0252), PSN-1 (G12R, ATCC CRM-CRL-3211) cells were grown in RPMI medium supplemented with 10% fetal bovine serum, 10 mM HEPES, 10 mM Sodium Pyruvate, and Penicillin/Streptomycin. Cells were plated in black well clear bottom tissue culture treated 96 well plates (Corning, 3904) at a density of 20,000 cells/well and allowed to attach for 12-14 hours. Diluted compounds were then added in a final concentration of 0.5% DMSO. After 3 hours, 50 μL of 4.0% formaldehyde was added and the plates incubated at room temperature for 20 minutes. The plates were then dumped and permeabilized with 150 μL of ice cold 100% methanol for 10 minutes. Non-specific antibody binding to the plates was blocked using 100 μL Odyssey blocking buffer (LI-COR Biosciences, 927-60010) for 1 hour at room temperature.
(§3) The amount of phospho-ERK was determined using an antibody specific for the phosphorylated form of ERK and compared to the amount of GAPDH. Primary antibodies used for the detection were added as follows: Phospho-ERK (Cell Signaling CS-9101) diluted 1:500 and GAPDH (Millipore MAB374) diluted 1:5000 in Odyssey blocking buffer+0.05% Tween 20. The plates were incubated overnight at 4 C. The plates were washed 3× with 150 uL PBS+0.1% Tween 20.
(§4) Secondary antibodies used to visualize primary antibodies were added as follows: Goat Anti-Rabbit-800 (LI-COR, 926-32211) and Goat Anti-Mouse-680 (LI-COR, 926-68070) diluted 1:800 both in Odyssey blocking buffer+0.05% Tween 20 and were incubated for 1 hour at room temperature. The plates were washed 3× with 150 uL PBS+[…]. Plates were imaged dry on a Li—COR Odyssey CLX plate reader.
(§5) The phospho-ERK (Thr202/Tyr204) signal was normalized to the GAPDH signal for each well and percent of DMSO control values were calculated. IC50 values were generated using a 4-parameter fit of the dose response curve.

[15] = tested on: NCI-H460 (Q61H) cells, phospho-ERK; assay: as above; assay type: cell-based; settings: Homo sapiens, 3 hours
Protocol: as §2, §3, §4, §5

[16] = tested on: NCI-H727 (G12V) cells, phospho-ERK; assay: as above; assay type: cell-based; settings: Homo sapiens, 3 hours
Protocol: as §2, §3, §4, §5

[17] = target: KRas^G12C (Homo sapiens, UniProt P01116, G12C); assay: biochemical
[18] = target: KRas^G13D (Homo sapiens, UniProt P01116, G13D); assay: biochemical
[19] = target: KRas^Q61H (Homo sapiens, UniProt P01116, Q61H); assay: biochemical
KRas^Q61H, sequence (P01116 1-169 isoform P01116-2 Q61H): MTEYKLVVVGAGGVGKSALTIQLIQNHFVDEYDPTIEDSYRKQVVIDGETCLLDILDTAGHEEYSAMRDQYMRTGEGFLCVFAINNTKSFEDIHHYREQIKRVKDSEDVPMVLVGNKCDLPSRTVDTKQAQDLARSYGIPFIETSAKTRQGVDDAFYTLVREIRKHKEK

T1 sequence (P01116 1-169 isoform P01116-2 G12D): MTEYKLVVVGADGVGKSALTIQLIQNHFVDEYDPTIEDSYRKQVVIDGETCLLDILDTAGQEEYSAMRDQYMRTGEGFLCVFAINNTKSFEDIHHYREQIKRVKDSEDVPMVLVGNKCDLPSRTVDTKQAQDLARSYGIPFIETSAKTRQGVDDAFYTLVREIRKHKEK
T2 sequence (P01116 1-169 isoform P01116-2 G12R): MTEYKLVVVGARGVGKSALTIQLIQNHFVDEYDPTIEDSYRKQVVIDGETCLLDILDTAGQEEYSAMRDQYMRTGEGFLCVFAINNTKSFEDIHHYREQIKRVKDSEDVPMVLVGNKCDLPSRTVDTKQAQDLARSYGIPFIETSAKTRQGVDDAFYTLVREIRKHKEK
T3 sequence (P01116 1-169 isoform P01116-2 G12V): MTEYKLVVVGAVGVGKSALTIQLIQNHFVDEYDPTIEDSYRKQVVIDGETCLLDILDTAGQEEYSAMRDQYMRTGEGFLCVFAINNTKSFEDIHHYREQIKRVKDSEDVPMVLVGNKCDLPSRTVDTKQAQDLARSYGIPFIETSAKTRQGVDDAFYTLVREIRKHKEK
T4 sequence (P01116 1-169 isoform P01116-2): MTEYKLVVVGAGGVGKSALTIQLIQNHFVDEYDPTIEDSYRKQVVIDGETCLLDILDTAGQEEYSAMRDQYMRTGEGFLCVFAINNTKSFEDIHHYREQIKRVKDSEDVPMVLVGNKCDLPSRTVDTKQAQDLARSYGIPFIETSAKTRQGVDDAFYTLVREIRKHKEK
T5 sequence (P01116 1-169 isoform P01116-2 G12A): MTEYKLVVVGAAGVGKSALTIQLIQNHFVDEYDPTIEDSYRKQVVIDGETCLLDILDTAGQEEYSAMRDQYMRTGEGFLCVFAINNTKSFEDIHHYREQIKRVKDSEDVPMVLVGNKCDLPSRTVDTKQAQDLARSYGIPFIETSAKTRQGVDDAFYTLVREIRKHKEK
KRas^G13D, sequence (P01116 1-169 isoform P01116-2 G13D): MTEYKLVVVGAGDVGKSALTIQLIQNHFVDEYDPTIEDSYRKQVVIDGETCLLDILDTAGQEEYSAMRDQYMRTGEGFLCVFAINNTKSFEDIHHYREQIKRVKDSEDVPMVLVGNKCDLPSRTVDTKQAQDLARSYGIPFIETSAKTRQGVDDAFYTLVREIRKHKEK
T6 sequence (P01116 1-169 isoform P01116-2 G12S): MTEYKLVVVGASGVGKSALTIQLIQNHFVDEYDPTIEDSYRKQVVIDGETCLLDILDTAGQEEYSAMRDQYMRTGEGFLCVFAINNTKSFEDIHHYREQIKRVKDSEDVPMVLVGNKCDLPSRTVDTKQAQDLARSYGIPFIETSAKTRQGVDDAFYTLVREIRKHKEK
KRas^G12C, sequence (P01116 1-169 isoform P01116-2 G12C): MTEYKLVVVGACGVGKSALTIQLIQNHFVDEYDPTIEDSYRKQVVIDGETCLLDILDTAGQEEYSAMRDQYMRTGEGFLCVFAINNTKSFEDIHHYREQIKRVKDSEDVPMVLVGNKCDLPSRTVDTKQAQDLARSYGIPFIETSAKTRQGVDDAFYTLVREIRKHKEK

| IC50 [4] [nM] | IC50 [5] [nM] | IC50 [6] [nM] | IC50 [7] [nM] | IC50 [8] [nM] | SMILES | IC50 [1] [nM] | IC50 [2] [nM] | IC50 [3] [nM] | IC50 [9] [nM] | IC50 [10] [nM] | IC50 [11] [nM] | IC50 [12] [nM] | IC50 [13] [nM] | IC50 [14] [nM] | IC50 [15] [nM] | IC50 [16] [nM] | IC50 [17] [nM] | IC50 [18] [nM] | IC50 [19] [nM] |
| --- | --- | --- | --- | --- | --- | --- | --- | --- | --- | --- | --- | --- | --- | --- | --- | --- | --- | --- | --- |
| 160 | 234 | 132 | 390 | 227 | O=C1NC(=O)C2(CCCN(c3nc(OC[C@@]45CCCN4C[C@H](F)C5)nc4c3CCN(c3cc(O)cc5ccc(F)c(Br)c35)C4)C2)N1 (stereo partly drawn) [Example 217, 7-(7-(8-bromo-7-fluoro-3-hydroxynaphthalen-1-yl)-2-(((2R,7aS)-2-fluorohexahydro-1H-pyrrolizin-7a-yl)methoxy)-5,6,7,8-tetrahydropyrido[3,4-d]pyrimidin-4-yl)-1,3,7-triazaspiro[4.5]decane-2,4-dione] | ≤ 2 | ≤ 2 | ≤ 2 | 21 | 269 |  |  |  |  |  |  |  |  |  |
|  |  |  |  |  | CCc1c(F)ccc2cc(O)cc(N3CCc4c(nc(OC[C@@]56CCCN5C[C@H](F)C6)nc4NCc4c[nH]c5ncccc45)C3)c12 [Example 23, 4-(4-(((1H-pyrrolo[2,3-b]pyridin-3-yl)methyl)amino)-2-(((2R,7aS)-2-fluorohexahydro-1H-pyrrolizin-7a-yl)methoxy)-5,6-dihydropyrido[3,4-d]pyrimidin-7(8H)-yl)-5-ethyl-6-fluoronaphthalen-2-ol] | 69 | 4 | 5 | 53 | ≥ 10000 | 36 | 9 | 12 | 3850 | 1770 | 2420 | 7 | 42 | 38 |
| 146 | 108 | 253 | 197 | 405 | O=C1NCC2(CCCN(c3nc(OC[C@@]45CCCN4C[C@H](F)C5)nc4c3CCN(c3cc(O)cc5ccc(F)c(Cl)c35)C4)C2)N1 (stereo partly drawn) [Example 228, 7-(7-(8-chloro-7-fluoro-3-hydroxynaphthalen-1-yl)-2-(((2R,7aS)-2-fluorohexahydro-1H-pyrrolizin-7a-yl)methoxy)-5,6,7,8-tetrahydropyrido[3,4-d]pyrimidin-4-yl)-1,3,7-triazaspiro[4.5]decan-2-one] | ≤ 2 | ≤ 2 | ≤ 2 | 24 | 696 |  |  |  |  |  |  |  |  |  |
| 705 | 220 | 1400 | 260 | 1980 | CN(C)C(=O)c1cc2n(n1)CCCN(c1nc(OC[C@@]34CCCN3C[C@H](F)C4)nc3c1CCN(c1cc(O)cc4ccc(F)c(Cl)c14)C3)C2 [Example 229, 5-(7-(8-chloro-7-fluoro-3-hydroxynaphthalen-1-yl)-2-(((2R,7aS)-2-fluorohexahydro-1H-pyrrolizin-7a-yl)methoxy)-5,6,7,8-tetrahydropyrido[3,4-d]pyrimidin-4-yl)-N,N-dimethyl-5,6,7,8-tetrahydro-4H-pyrazolo[1,5-a][1,4]diazepine-2-carboxamide] | ≤ 2 | ≤ 2 | ≤ 2 | 317 | 2140 |  |  |  |  |  |  |  |  |  |
|  |  |  |  |  | CCc1c(F)ccc2cc(O)cc(N3CCc4c(nc(OC[C@@]56CCCN5C[C@H](F)C6)nc4N4CCCC(c5ncn[nH]5)C4)C3)c12 (stereo partly drawn) [Example 19, 4-(4-(3-(1H-1,2,4-triazol-5-yl)piperidin-1-yl)-2-(((2R,7aS)-2-fluorotetrahydro-1H-pyrrolizin-7a(5H)-yl)methoxy)-5,8-dihydropyrido[3,4-d]pyrimidin-7(6H)-yl)-5-ethyl-6-fluoronaphthalen-2-ol] | 26 | 4 | 6 | 389 | ≥ 10000 | 8 | 4 | 9 | 2680 | 1290 | 2930 | 5 | 11 | 9 |
|  |  |  |  |  | CCc1c(F)ccc2cc(O)cc(N3CCc4c(nc(OC[C@@]56CCCN5C[C@H](F)C6)nc4N4CCCC(n5cccn5)C4)C3)c12 (stereo partly drawn) [Example 67, 4-(4-(3-(1H-pyrazol-1-yl)piperidin-1-yl)-2-(((2R,7aS)-2-fluorohexahydro-1H-pyrrolizin-7a-yl)methoxy)-5,6-dihydropyrido[3,4-d]pyrimidin-7(8H)-yl)-5-ethyl-6-fluoronaphthalen-2-ol] | 11 | ≤ 2 | 7 | 112 | ≥ 10000 |  |  |  | 1570 | 225 | 876 |  |  |  |

| SMILES | IC50 [4] [nM] | IC50 [5] [nM] | IC50 [6] [nM] | IC50 [7] [nM] | IC50 [8] [nM] | IC50 [1] [nM] | IC50 [2] [nM] | IC50 [3] [nM] | IC50 [9] [nM] | IC50 [10] [nM] | IC50 [11] [nM] | IC50 [12] [nM] | IC50 [13] [nM] | IC50 [14] [nM] | IC50 [15] [nM] | IC50 [16] [nM] | IC50 [17] [nM] | IC50 [18] [nM] | IC50 [19] [nM] |
| --- | --- | --- | --- | --- | --- | --- | --- | --- | --- | --- | --- | --- | --- | --- | --- | --- | --- | --- | --- |
| CCc1c(F)ccc2cc(O)cc(N3CCc4c(nc(OC[C@@]56CCCN5C[C@H](F)C6)nc4N4CCOCC(n5cccn5)C4)C3)c12 (stereo partly drawn) [Example 25, 4-(4-(6-(1H-pyrazol-1-yl)-1,4-oxazepan-4-yl)-2-(((2R,7aS)-2-fluorohexahydro-1H-pyrrolizin-7a-yl)methoxy)-5,6-dihydropyrido[3,4-d]pyrimidin-7(8H)-yl)-5-ethyl-6-fluoronaphthalen-2-ol] |  | 180 |  | 767 | 521 | 3 | 4 | 3 | 51 | 8320 |  |  |  | 448 | 171 | 540 |  |  |  |
| CCc1c(F)ccc2cc(O)cc(N3CCc4c(nc(OC[C@@]56CCCN5C[C@H](F)C6)nc4N4CCOCC(O)C4)C3)c12 (stereo partly drawn) [Example 29, 4-(7-(8-ethyl-7-fluoro-3-hydroxynaphthalen-1-yl)-2-(((2R,7aS)-2-fluorohexahydro-1H-pyrrolizin-7a-yl)methoxy)-5,6,7,8-tetrahydropyrido[3,4-d]pyrimidin-4-yl)-1,4-oxazepan-6-ol] |  | 318 |  | 906 | 1310 | ≤ 2 | ≤ 2 | ≤ 2 | 20 | 5810 |  |  |  | 509 | 285 | 542 |  |  |  |
